From US20250304608A1, “PHOSPHORUS COMPOUND AND USE THEREOF” (SHANGHAI SHIJIANG BIOTECHNOLOGY CO., LTD., priority 2022, published 2025)

Tests used:
Format in all cases: cell-based
[1] = tested on: mPTP-active Daoy cell; test: CellTiter-Glo cell viability inhibition, mPTP-active Daoy cell; conditions: Homo sapiens; Daoy cell transfected with empty virus vector; CellTiter-Glo; read-out: mPTP-active Daoy cell (IC50)
[2] = tested on: mPTP-inactive Daoy cell; test: CellTiter-Glo cell viability inhibition, mPTP-inactive Daoy cell; conditions: Homo sapiens, Daoy cell transfected with PPIF shRNA vector
[3] = tested on: Con-NCI-H82 cell; test: CellTiter-Glo cell viability inhibition, Con-NCI-H82 cell; conditions: Homo sapiens, NCI-H82 cell transfected with empty virus vector
Source text: (§1) The expression of NNMT protein in NCI-H82 cell was overexpressed by inserting the NNMT gene into NCI-H82 cell using a viral vector, and the NNMT protein-overexpressing NCI-H82 cell (ov-NNMT NCI-H82 cell) was obtained. The control NCI-H82 cell (Con-NCI-H82 cell) was obtained by transfecting NCI-H82 cell with empty virus vector without carrying NNMT gene. The expressing content of NNMT protein in the Con-NCI-H82 cell and ov-NNMT NCI-H82 cell was detected using Western Blot assay (as shown in FIG. 3), it could be seen from FIG. 3 that the NNMT protein was overexpressed in the ov-NNMT NCI-H82 cell compared with the expression level of NNMT protein in the Con-NCI-H82 cell.

[4] = tested on: ov-NNMT NCI-H82 cell; test: CellTiter-Glo cell viability inhibition, ov-NNMT NCI-H82 cell; conditions: Homo sapiens, NCI-H82 cell overexpressing NNMT protein
Source text: as §1

| Compound | IC50 [3] [µM] | IC50 [4] [µM] | IC50 [1] [nM] | IC50 [2] [nM] |
| --- | --- | --- | --- | --- |
| COc1ccc([P+](c2ccc(OC)cc2)(c2cccc3[nH]ccc23)c2cccc3[nH]ccc23)cc1 [AB35596] | 0.25 | 1.56 | 1320 | 250 |
| COc1ccc([P+](c2ccc(OC)cc2)(c2cc3cc[nH]c3cn2)c2cccc3[nH]ccc23)cc1 [AB36453] | 0.35 | 1.62 | 1850 | 290 |
| c1ccc([P+](c2ccccc2)(c2ccc3[nH]ccc3c2)c2ccc3[nH]ncc3c2)cc1 [AB35529] | 0.38 | 1.87 | 4110 | 880 |
| C(=C\C[P+](c1ccccc1)(c1ccccc1)c1ccccc1)/C[P+](c1ccccc1)(c1ccccc1)c1ccccc1 [SJ00001] | 0.68 | 0.79 | 3710 | 3440 |
| COc1ccc([P+](c2ccc(OC)cc2)(c2ccc(OC)cc2)c2cccc3[nH]ccc23)cc1 [AB35527] | 0.36 | 1.45 | 1210 | 250 |
| Cn1cc2c([P+](c3ccccc3)(c3ccccc3)c3cccc4c3ccn4C)cccc2n1 [AB35574] | 0.41 | 2.56 | 8350 | 2450 |
| c1ccc(P(=[N+]=P(c2ccccc2)(c2ccccc2)c2ccccc2)(c2ccccc2)c2ccccc2)cc1 [SJ00002] | 0.18 | 0.21 | 440 | 460 |
| c1ccc([P+](c2ccccc2)(c2ccc3[nH]ccc3c2)c2ccc3[nH]ccc3n2)cc1 [AB35597] | 0.18 | 1.85 | 1180 | 240 |
| c1ccc([P+](c2ccccc2)(c2ccc3cc[nH]c3c2)c2ccc3cn[nH]c3c2)cc1 [AB35538] | 0.97 | 3.86 | 5940 | 1710 |
| COc1ccc([P+](c2ccc(OC)cc2)(c2cccc3[nH]ccc23)c2cccc3[nH]ncc23)cc1 [AB36498] | 1.01 | 3.43 | 6650 | 1320 |
| COc1ccc([P+](c2ccc(OC)cc2)(c2cccc3c2ccn3C)c2cccc3c2cnn3C)cc1 [AB36438] | 0.32 | 1.53 | 1030 | 240 |
| c1ccc([P+](c2ccccc2)(c2ccc3[nH]ccc3c2)c2cnc3[nH]ccc3c2)cc1 [AB35537] | 0.51 | 2.33 | 2240 | 790 |
| c1ccc([P+](c2ccccc2)(c2ccccc2)c2ccc3c(ccn3CCN3CCOCC3)c2)cc1 [AB35576] | 0.51 | 2.93 | 1600 | 460 |
| COc1ccc([P+](c2ccc(OC)cc2)(c2cccc3c2ccn3C)c2cccc3c2ccn3C)cc1 [AB36420] | 0.14 | 0.98 | 1090 | 190 |
| COc1ccc([P+](c2ccc(OC)cc2)(c2ccc(OC)cc2)c2cccc3c2ccn3C)cc1 [AB36411] | 0.17 | 0.16 | 520 | 680 |
| c1ccc([P+](c2ccccc2)(c2ccc3[nH]ccc3c2)c2cc3[nH]ccc3cn2)cc1 [AB36405] | 0.98 | 3.72 | 5450 | 1890 |
| [C-]#[N+]N=P(c1ccccc1)(c1ccccc1)c1ccccc1 [SJ00004] | 5.51 | 5.32 | 9010 | 7990 |
| COc1ccc([P+](c2ccc(OC)cc2)(c2cccc3nn(C)cc23)c2cccc3nn(C)cc23)cc1 [AB36471] | 2.86 | 11 | 6360 | 1480 |
| COc1ccc([P+](c2ccc(OC)cc2)(c2cccc3nn(C)cc23)c2cccc3c2ccn3C)cc1 [AB36444] | 0.86 | 3.91 | 1990 | 550 |
| c1ccc([P+](c2ccccc2)(c2ccc3cc[nH]c3c2)c2cnc3cc[nH]c3c2)cc1 [AB35549] | 3.18 | 9.57 | 10500 | 3850 |

Continued, in another order:

| IC50 [3] [µM] | IC50 [4] [µM] | Compound | IC50 [1] [nM] | IC50 [2] [nM] |
| --- | --- | --- | --- | --- |
| 3.34 | 11.8 | c1ccc([P+](c2ccccc2)(c2cnc3cc[nH]c3c2)c2cccc3[nH]ccc23)cc1 [AB35570] | 15600 | 3990 |
| 0.51 | 2.77 | c1ccc([P+](c2ccccc2)(c2ccccc2)c2cccc3c2ccn3CCN2CCCCC2)cc1 [AB35579] | 1210 | 270 |
| 0.32 | 1.03 | c1ccc([P+](c2ccccc2)(c2ccccc2)c2ccc3cc[nH]c3c2)cc1 [AB35431] | 2000 | 650 |
| 3.32 | 9.74 | c1ccc([P+](c2ccccc2)(c2ccccc2)c2cccc3cn[nH]c23)cc1 [AB36511] | 13400 | 4030 |
| 8.11 | 19.4 | c1ccc([P+](c2ccccc2)(c2cccnc2)c2ccc3cc[nH]c3c2)cc1 [AB35472] | 38400 | 10700 |
| 0.47 | 1.92 | c1ccc([P+](c2ccccc2)(c2ccccc2)c2cccc3occc23)cc1 [AB36521] | 2450 | 750 |
| 1.27 | 4.93 | Cn1ccc2c([P+](c3ccccc3)(c3ccccc3)c3cccc4c3cnn4C)cccc21 [AB35578] | 3800 | 1450 |
| 0.26 | 1.35 | c1ccc([P+](c2ccccc2)(c2cccc3[nH]ccc23)c2cccc3cn[nH]c23)cc1 [AB36514] | 10200 | 1190 |
| 3.25 | 9.22 | Brc1c(C[P+](c2ccccc2)(c2ccccc2)c2ccccc2)[nH]c2ccccc12 [AB36542] | 8370 | 3680 |
| 1.66 | 5.34 | c1ccc([P+](c2ccccc2)(c2ccc3[nH]cnc3c2)c2cccc3[nH]ccc23)cc1 [AB35569] | 12200 | 2340 |
| 0.63 | 2.34 | c1ccc([P+](c2ccccc2)(c2cccc3[nH]ccc23)c2cncc3[nH]ccc23)cc1 [AB35452] | 5390 | 820 |
| 2.17 | 6.47 | c1ccc([P+](c2ccccc2)(c2ccccc2)c2cccc3cc[nH]c23)cc1 [AB35449] | 7120 | 2440 |
| 6.48 | 20.6 | c1ccc([P+](c2ccccc2)(c2cccc3cc[nH]c23)c2cccc3cc[nH]c23)cc1 [AB35462] | 28900 | 12700 |
| 3.27 | 12.3 | c1ccc([P+](c2ccccc2)(c2cccnc2)c2ccc3[nH]ccc3c2)cc1 [AB35473] | 18000 | 2950 |
| 3.09 | 8.97 | c1ccc([P+](c2ccccc2)(c2ccccc2)c2ccoc2)cc1 [AB36533] | 11900 | 3520 |
| 0.56 | 1.89 | c1ccc([P+](c2ccccc2)(c2ccccc2)c2cccc3ccoc23)cc1 [AB36536] | 1390 | 310 |
| 0.34 | 2.16 | c1ccc([P+](c2ccccc2)(c2cccc3[nH]ccc23)c2ccnc3[nH]ccc23)cc1 [AB35471] | 4350 | 810 |
| 3.97 | 8.16 | c1ccc([P+](c2ccccc2)(c2ccccc2)c2cscn2)cc1 [AB36537] | 14400 | 3550 |
| 0.41 | 2.13 | c1ccc([P+](c2ccccc2)(c2cccc3[nH]ccc23)c2cccc3[nH]ncc23)cc1 [AB35482] | 3970 | 610 |
| 2.22 | 7.14 | c1ccc([P+](c2ccccc2)(c2ccc3cc[nH]c3c2)c2ccc3nc[nH]c3c2)cc1 [AB35548] | 8090 | 2640 |
| 0.46 | 2.09 | c1ccc([P+](c2ccccc2)(c2cnc3[nH]ccc3c2)c2cccc3[nH]ccc23)cc1 [AB35563] | 1510 | 560 |
| 3.66 | 13.6 | c1ccc([P+](c2ccccc2)(c2ccncc2)c2cccc3[nH]ccc23)cc1 [AB35474] | 18400 | 2450 |
| 1.26 | 4.81 | c1ccc([P+](c2ccccc2)(c2ccc3cn[nH]c3c2)c2cccc3[nH]ccc23)cc1 [AB35581] | 5340 | 1740 |
| 0.46 | 2.32 | c1ccc([P+](c2ccccc2)(c2ccccc2)c2cccc3sccc23)cc1 [AB36535] | 1560 | 370 |
| 0.28 | 1.95 | c1ccc([P+](c2ccccc2)(c2cccc3[nH]ccc23)c2cccc3[nH]cnc23)cc1 [AB35572] | 10300 | 3340 |
| 0.21 | 1.78 | c1ccc([P+](c2ccccc2)(c2cc3cc[nH]c3cn2)c2cccc3[nH]ccc23)cc1 [AB35588] | 1140 | 380 |
| 3.38 | 10.7 | c1ccc([P+](c2ccccc2)(c2ccccc2)c2cccc3[nH]cnc23)cc1 [AB36504] | 25300 | 5120 |
